According to paper PMC10692723 (The Journal of Biological Chemistry, 2023):
Ends that are not written are not given here. * marks the point of attachment. FITC = O=C1OC2(c3ccc(O)cc3Oc3cc(O)ccc32)c2ccc(NC(=S)*)cc21

B1: FITC-conjugated CD44 peptide (SRRRCGQKKKLVINSGNGAVEDYK-FITC) (peptide)
peptide: SRRRCGQKKKLVINSGNGAVEDYK(FITC)
B2: MSN FERM domain (1-345) H288A, untagged (domain or fragment)
chain: MPKTISVRVTTMDAELEFAIQPNTTGKQLFDQVVKTIGLREVWFFGLQYQDTKGFSTWLKLNKKVTAQDVRKESPLLFKFRAKFYPEDVSEELIQDITQRLFFLQVKEGILNDDIYCPPETAVLLASYAVQSKYGDFNKEVHKSGYLAGDKLLPQRVLEQHKLNKDQWEERIQVWHEEHRGMLREDAVLEYLKIAQDLEMYGVNYFSIKNKKGSELWLGVDALGLNIYEQNDRLTPKIGFPWSEIRNISFNDKKFVIKPIDKKAPDFVFYAPRLRINKRILALCMGNAELYMRRRKPDTIEVQQMKAQAREEKHQKQMERAMLENEKKKREMAEKEKEKIEREKE
B3: MSN FERM domain (1-345) L281R, untagged (domain or fragment)
chain: MPKTISVRVTTMDAELEFAIQPNTTGKQLFDQVVKTIGLREVWFFGLQYQDTKGFSTWLKLNKKVTAQDVRKESPLLFKFRAKFYPEDVSEELIQDITQRLFFLQVKEGILNDDIYCPPETAVLLASYAVQSKYGDFNKEVHKSGYLAGDKLLPQRVLEQHKLNKDQWEERIQVWHEEHRGMLREDAVLEYLKIAQDLEMYGVNYFSIKNKKGSELWLGVDALGLNIYEQNDRLTPKIGFPWSEIRNISFNDKKFVIKPIDKKAPDFVFYAPRLRINKRIRALCMGNHELYMRRRKPDTIEVQQMKAQAREEKHQKQMERAMLENEKKKREMAEKEKEKIEREKE

Columns and labels:
[1] = target: MSN–CD44 interaction (Homo sapiens, UniProt P26038); assay: MSN–CD44 TR-FRET assay; assay type: binding; details: for increase in potency relative to compound 2: MSN–CD44 TR-FRET
MSN–CD44 interaction, sequence (P26038 1-345): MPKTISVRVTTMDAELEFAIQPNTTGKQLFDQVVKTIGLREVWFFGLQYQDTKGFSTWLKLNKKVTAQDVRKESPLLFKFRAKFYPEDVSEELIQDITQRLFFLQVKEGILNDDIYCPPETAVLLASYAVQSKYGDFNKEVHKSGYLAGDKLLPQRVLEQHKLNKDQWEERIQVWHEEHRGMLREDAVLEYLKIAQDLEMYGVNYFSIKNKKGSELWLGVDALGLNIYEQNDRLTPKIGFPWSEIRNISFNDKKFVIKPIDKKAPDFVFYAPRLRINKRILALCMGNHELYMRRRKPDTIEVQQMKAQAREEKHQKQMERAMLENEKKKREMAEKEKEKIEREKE

[2] = target: GST-MSN and Venus-Flag-CD44 (Homo sapiens, UniProt P26038); assay: GST pull-down assay in cell lysates; assay type: binding; details: full-length GST-MSN and Flag-CD44
GST-MSN and Venus-Flag-CD44, sequence (P26038 whole entry): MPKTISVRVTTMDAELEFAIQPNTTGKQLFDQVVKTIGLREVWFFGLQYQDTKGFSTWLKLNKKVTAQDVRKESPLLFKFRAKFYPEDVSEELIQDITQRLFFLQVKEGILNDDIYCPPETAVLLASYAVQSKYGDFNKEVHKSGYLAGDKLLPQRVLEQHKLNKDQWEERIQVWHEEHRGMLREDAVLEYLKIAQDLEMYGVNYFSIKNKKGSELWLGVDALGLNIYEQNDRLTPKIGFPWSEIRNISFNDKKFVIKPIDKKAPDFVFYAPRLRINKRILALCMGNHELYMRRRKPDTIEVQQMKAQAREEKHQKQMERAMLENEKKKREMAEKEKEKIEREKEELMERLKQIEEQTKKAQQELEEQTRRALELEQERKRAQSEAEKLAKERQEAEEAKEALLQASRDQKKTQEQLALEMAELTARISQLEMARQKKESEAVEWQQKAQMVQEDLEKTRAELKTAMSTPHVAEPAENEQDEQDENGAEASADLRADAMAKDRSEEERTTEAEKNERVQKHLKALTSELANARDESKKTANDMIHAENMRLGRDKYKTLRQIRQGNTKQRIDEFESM

[3] = Solubility by nephelometry; details: aqueous / PBS buffer
[4] = target: T1, 6His-tagged MSN FERM domain (residues 1-345), wild type (human, UniProt P26038 1-345); assay: FRET or BRET
[5] = target: T1, 6His-tagged MSN FERM domain (residues …); assay: FRET or BRET; remark: listed apart in the source
[6] = target: T1, 6His-tagged MSN FERM domain (residues …); assay: FRET or BRET; remark: listed apart in the source
[7] = target: MSN FERM domain (residues 1-345), wild type, 6His tag cleaved (human, UniProt P26038 1-345); assay: FRET or BRET
[8] = target: B1; assay: FRET or BRET

Molecule | h (hill slope) of MSN–CD44 TR-FRET dose response [1] | effect on MSN–CD44 interaction in GST pull-down assay [2] | solubility [3] | further results
Nc1ccc(C(=O)Nc2ccc(-c3nc4ccc(NC(=O)c5ccc(N)cc5)cc4s3)cc2)cc1.O=C(O)C(F)(F)F.O=C(O)C(F)(F)F [Compound 1, 4-amino-N-(4-(6-(4-aminobenzamido)benzo[d]thiazol-2-yl)phenyl)benzamide bis(2,2,2-trifluoroacetate)] | 1.7 | induce the dissociation of CD44 from MSN | – | –
COc1ccccc1C(=O)Nc1ccc(-c2nc3ccccc3[nH]2)cc1 [Compound 2, N-(4-(1H-benzo[d]imidazol-2-yl)phenyl)-2-methoxybenzamide] | 15.8 | induce the dissociation of CD44 from MSN | low solubility | –
COc1ccc(C(=O)Nc2ccc(-c3nc4ccccc4[nH]3)cc2)c(OC)c1 [Compound 2a, N-(4-(1H-benzo[d]imidazol-2-yl)phenyl)-2,4-dimethoxybenzamide] | 2.4 | able to inhibit the MSN–CD44 interaction | improved solubility | increase in potency relative to compound 2 [1]: approximately 2 fold
O=C(Nc1ccc(-c2nc3ccccc3[nH]2)cc1)c1cccc(Cl)c1 [Compound 2b, N-(4-(1H-benzo[d]imidazol-2-yl)phenyl)-3-chlorobenzamide] | 2.3 | able to inhibit the MSN–CD44 interaction | improved solubility | increase in potency relative to compound 2 [1]: approximately 2 fold
EDGGSSWEYIWTLPSG [C3S1-pd peptide] | – | – | – | EC50 [4]: ~130 nM; IC50 [5]: ~220 nM
B1 | – | – | – | binding result [6]: binds; binding result [7]: binds
B2 | – | – | – | fold higher concentration needed to inhibit, against WT MSN [8]: 10 fold
B3 | – | – | – | fold higher concentration needed to inhibit, against WT MSN [8]: 10 fold
